In this assay the test system is platelets. Kind of assay: luminometric determination of collagen-induced ATP release from platelets. The class given is cell-based. Conditions: platelet rich plasma, 2 μg/ml collagen, RGDS 30 μM; p<0.002 versus collagen alone. The source says:
Miniaturised (96 well format) high-throughput screening assays capable of assessing platelet activation that are suitable for screening potential anti-thrombotic agents have been developed. The primary assay is based on the phenomenon that platelet activation results in a substantial release of ATP from dense granules. Released ATP is then rapidly quantitated in a plate reader using bioluminescence and is proportional to the extent of platelet activation.
Platelet rich plasma was stimulated by automated injection of 2 μg/ml collagen in the presence or absence of commercially available RGDS (30 μM). Relative light output was then measured automatically in a BMG Fluostar plate reader.
Fibrinogen was digested with either Lys-C (A) or trypsin (B) prior to fractionation as described in FIGS. 2 and 3.

Turning to RGDS, the “inhibition of collagen-induced ATP release” value was 30%.

(Values after patent publication US20060147992A1, “Method for detection of bioactive peptides” (priority 2002, published 2006).)
